Source: patent US7417061B2, “Oxadiazole compounds and compositions for delivering active agents” (MHR Institutional Partners IIA LP, priority 1999, dated 2008)

assay: Oral delivery of rhGH with delivery agent compound in rats; serum rhGH by immunoassay; assay type: in vivo, rat; settings: male Sprague-Dawley rats, compound 200 mg/kg, rhGH 3 mg/kg, 1 ml/kg, pooled samples (except compound 1)
Description: Oral gavage (PO) and/or intracolonic (IC) dosing solutions of delivery agent compound and rhGH in phosphate buffer were prepared. A solution of the compound was made either with the sodium salt of the compound or by converting the free acid to its sodium salt. Typically, a solution of the compound was prepared in phosphate buffer and stirred, adding one equivalent of sodium hydroxide (1.0 N) when making the sodium salt. The final dosing solutions were prepared by mixing the compound solution with an rhGH stock solution (15 mg rhGH/ml) and diluting to the desired volume (usually 3.0 ml). The compounds and rhGH dose amounts are listed below in Table 3.
The typical dosing and sampling protocols were as follows. Male Sprague-Dawley rats weighing between 200-250 g were fasted for 24 hours and administered ketamine (44 mg/kg) and chlorpromazine (1.5 mg/kg) 15 minutes prior to dosing. A dosing group of five rats was administered one of the dosing solutions. For oral gavage (PO), an 11 cm Rusch 8 French catheter was adapted to a 1 ml syringe with a pipette tip. The syringe was filled with dosing solution by drawing the solution through the catheter, which was then wiped dry. The catheter was placed down the esophagus leaving 1 cm of tubing past the rat's incisors. Solution was administered by pressing the syringe plunger. For intracolonic (IC) dosing, a 7.5 cm Rusch catheter tube (French 8 or 6) was adapted to a syringe with an Eppendorf pipette tip. The syringe was filled with the dosing solution by drawing the solution through the catheter tube. The catheter tube was wiped dry. K-Y jelly was applied to the tip, avoiding contact with the eye of the tube, and the tube was inserted into the colon through the anus until the tube was no longer visible. The solution was injected by pressing the syringe plunger, and the tube was removed.
Blood samples were collected serially from the tail artery, typically at 0, 15, 30, 45, 60 and 90 minutes after oral administration and 0, 10, 20, 30, 60 and 90 minutes after IC administration. The five samples from each time period were pooled (except for where compound 1 was dosed). Serum rHGH concentrations were quantified by an rHGH immunoassay test kit (Kit # K1F4015 from Genzyme Corporation Inc., Cambridge, Mass.). Previous studies indicated baseline values of about zero.
The maximum concentration for each group and the area under the curve (AUC), when available, are reported below in Table 3.

Row | Mean Peak Serum [rhGH] [ng/mL] | SMILES
1 | 14.64 | O=C(O)CCCCCCc1nnc(-c2cc(Cl)ccc2O)o1 [Compound 5]
2 | 0 | O=C(O)CCCCCCc1nnc(-c2cc(Cl)cc(Cl)c2O)o1 [Compound 6]
3 | 0 | Cc1nnc(CCCCCCC(=O)O)o1 [Compound 12]

Row | SMILES | Mean Peak Serum [rhGH] [ng/mL]
4 | COc1ccc(-c2nnc(CCCCC(=O)O)o2)c(O)c1 [Compound 9] | 14.25
